Data: PubChem BioAssay (NCI)
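Interpolation was linear, between the two tested concentrations surrounding the appropriate level; five concentrations were tested over 48 hours in 96-well plates. TGI: total growth inhibition.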

How the values were obtained:
Assay in all cases: DTP human tumour cell line panel, 48 h
CCRF-CEM leukemia = system: CCRF-CEM leukemia
HCT-116 colon = system: HCT-116 colon
HCT-15 colon = system: HCT-15 colon
HS 578T breast = system: HS 578T breast
LOX IMVI melanoma = system: LOX IMVI melanoma
OVCAR-3 ovarian = system: OVCAR-3 ovarian
OVCAR-4 ovarian = system: OVCAR-4 ovarian
PC-3 prostate = system: PC-3 prostate
SF-295 CNS = system: SF-295 CNS
SK-MEL-2 melanoma = system: SK-MEL-2 melanoma
SNB-19 CNS = system: SNB-19 CNS
SNB-75 CNS = system: SNB-75 CNS
UO-31 renal = system: UO-31 renal

CCN(CC)CCO/N=C1/C=C2CCC3C(CC[C@@]4(C)C3CC[C@]4(C)O)[C@@]2(C)CC1 (stereo partly drawn)
TGI (CCRF-CEM leukemia): 3.97 µM
TGI (HCT-116 colon): 16.7 µM
TGI (HCT-15 colon): 13.7 µM
TGI (HS 578T breast): 33.7 µM
TGI (LOX IMVI melanoma): 14.8 µM
TGI (OVCAR-3 ovarian): 13.6 µM
TGI (OVCAR-4 ovarian): > 100 µM
TGI (PC-3 prostate): 88.1 µM
TGI (SF-295 CNS): 8.29 µM
TGI (SK-MEL-2 melanoma): 36.6 µM
TGI (SNB-19 CNS): 45.4 µM
TGI (SNB-75 CNS): 9.15 µM
TGI (UO-31 renal): 18.9 µM

COc1ccc(NC2CC(C)N(C(=O)c3ccccc3)O2)cc1 (stereo not drawn)
TGI (CCRF-CEM leukemia): > 10 µM
TGI (HCT-116 colon): > 10 µM
TGI (HCT-15 colon): > 10 µM
TGI (HS 578T breast): > 10 µM
TGI (LOX IMVI melanoma): > 10 µM
TGI (OVCAR-3 ovarian): > 10 µM
TGI (OVCAR-4 ovarian): > 10 µM
TGI (PC-3 prostate): > 10 µM
TGI (SF-295 CNS): > 10 µM
TGI (SK-MEL-2 melanoma): > 10 µM
TGI (SNB-19 CNS): > 10 µM
TGI (SNB-75 CNS): > 10 µM
TGI (UO-31 renal): > 10 µM

Cc1cc2c(cc1Cl)SC(NNc1ccc([N+](=O)[O-])cc1)=NS2(=O)=O
TGI (CCRF-CEM leukemia): > 10 µM
TGI (HCT-116 colon): > 10 µM
TGI (HCT-15 colon): > 10 µM
TGI (HS 578T breast): > 10 µM
TGI (LOX IMVI melanoma): > 10 µM
TGI (OVCAR-3 ovarian): > 10 µM
TGI (OVCAR-4 ovarian): > 10 µM
TGI (PC-3 prostate): > 10 µM
TGI (SF-295 CNS): > 10 µM
TGI (SK-MEL-2 melanoma): > 10 µM
TGI (SNB-19 CNS): > 10 µM
TGI (SNB-75 CNS): > 10 µM
TGI (UO-31 renal): > 10 µM

CCOC(=O)/C(C#N)=C/c1ccc2c(c1)CC1(C2)Cc2cc(CC)c(C(C)O)cc2C1 (stereo not drawn)
TGI (CCRF-CEM leukemia): 27.2 µM
TGI (HCT-116 colon): 15 µM
TGI (HCT-15 colon): 20 µM
TGI (HS 578T breast): 60.8 µM
TGI (LOX IMVI melanoma): 22 µM
TGI (OVCAR-3 ovarian): 22.4 µM
TGI (OVCAR-4 ovarian): 49 µM
TGI (PC-3 prostate): 56.8 µM
TGI (SF-295 CNS): 44.3 µM
TGI (SK-MEL-2 melanoma): 27.2 µM
TGI (SNB-19 CNS): 43.8 µM
TGI (SNB-75 CNS): 46.3 µM
TGI (UO-31 renal): 60.8 µM

OC(C/C=N/Nc1ccccc1)(C(F)(F)Cl)C(F)(F)Cl
TGI (CCRF-CEM leukemia): > 10 µM
TGI (HCT-116 colon): > 10 µM
TGI (HCT-15 colon): > 10 µM
TGI (HS 578T breast): > 10 µM
TGI (LOX IMVI melanoma): > 10 µM
TGI (OVCAR-3 ovarian): > 10 µM
TGI (OVCAR-4 ovarian): > 10 µM
TGI (PC-3 prostate): > 10 µM
TGI (SF-295 CNS): > 10 µM
TGI (SK-MEL-2 melanoma): > 10 µM
TGI (SNB-19 CNS): > 10 µM
TGI (SNB-75 CNS): > 10 µM
TGI (UO-31 renal): > 10 µM

CC[C@@H]1/C=C/C=C/C[C@H](C)[C@@H](O)[C@](C)(O)C(=O)[C@H](C)[C@@H](O)[C@H](C)C(=O)[C@H](C)[C@@H](O)[C@H](C)/C=C/C(=O)O[C@H]2[C@@H](C)[C@@H](CC1)O[C@@]1(CC[C@@H](C)[C@@H](CC(C)O)O1)[C@@H]2C (stereo partly drawn)
TGI (CCRF-CEM leukemia): 6.05 µM
TGI (HCT-116 colon): 3.11 µM
TGI (HCT-15 colon): 11.3 µM
TGI (HS 578T breast): > 25.1 µM
TGI (LOX IMVI melanoma): 4.32 µM
TGI (OVCAR-3 ovarian): 3.95 µM
TGI (OVCAR-4 ovarian): 9.33 µM
TGI (PC-3 prostate): 5.05 µM
TGI (SF-295 CNS): 9.05 µM
TGI (SK-MEL-2 melanoma): 8.4 µM
TGI (SNB-19 CNS): 19.8 µM
TGI (SNB-75 CNS): 9.11 µM
TGI (UO-31 renal): 12.3 µM

FC1=C2CCCCCC2SC1(F)F (stereo not drawn)
TGI (CCRF-CEM leukemia): 18.7 µM
TGI (HCT-116 colon): > 100 µM
TGI (HCT-15 colon): > 100 µM
TGI (HS 578T breast): > 100 µM
TGI (LOX IMVI melanoma): 31.4 µM
TGI (OVCAR-3 ovarian): > 100 µM
TGI (OVCAR-4 ovarian): > 100 µM
TGI (PC-3 prostate): > 100 µM
TGI (SF-295 CNS): > 100 µM
TGI (SK-MEL-2 melanoma): > 100 µM
TGI (SNB-19 CNS): > 100 µM
TGI (SNB-75 CNS): > 100 µM
TGI (UO-31 renal): > 100 µM

COC(=O)c1ccc(NCc2cc(O)ccc2O)cc1
TGI (CCRF-CEM leukemia): 10.8 µM
TGI (HCT-116 colon): 35.7 µM
TGI (HCT-15 colon): 19.5 µM
TGI (HS 578T breast): 18.5 µM
TGI (LOX IMVI melanoma): 26.1 µM
TGI (OVCAR-3 ovarian): 27.6 µM
TGI (OVCAR-4 ovarian): 30.5 µM
TGI (PC-3 prostate): 19.7 µM
TGI (SF-295 CNS): 35 µM
TGI (SK-MEL-2 melanoma): 36.1 µM
TGI (SNB-19 CNS): 70.5 µM
TGI (SNB-75 CNS): 38.9 µM
TGI (UO-31 renal): 26.3 µM

CC1(C)O[C@@H](CBr)C[C@H](C[C@H]2C[C@@H](O)C[C@@H](CCOCc3ccccc3)O2)O1
TGI (CCRF-CEM leukemia): > 100 µM
TGI (HCT-116 colon): 45.4 µM
TGI (HCT-15 colon): 57.1 µM
TGI (HS 578T breast): 47.7 µM
TGI (LOX IMVI melanoma): 71.8 µM
TGI (OVCAR-3 ovarian): 39.8 µM
TGI (OVCAR-4 ovarian): 41.7 µM
TGI (PC-3 prostate): 39 µM
TGI (SF-295 CNS): 32.4 µM
TGI (SK-MEL-2 melanoma): 32 µM
TGI (SNB-19 CNS): 61.8 µM
TGI (SNB-75 CNS): 36.9 µM
TGI (UO-31 renal): 43.5 µM

C/C=C/[C@H](O[Si](C)(C)C(C)(C)C)[C@@H](O)/C=C/C(=O)OCC
TGI (CCRF-CEM leukemia): 35.4 µM
TGI (HCT-116 colon): 32.3 µM
TGI (HCT-15 colon): 27.7 µM
TGI (HS 578T breast): 79.5 µM
TGI (LOX IMVI melanoma): 33.3 µM
TGI (OVCAR-3 ovarian): 47.6 µM
TGI (OVCAR-4 ovarian): 27.8 µM
TGI (PC-3 prostate): > 100 µM
TGI (SF-295 CNS): 46 µM
TGI (SK-MEL-2 melanoma): 82 µM
TGI (SNB-19 CNS): 28.7 µM
TGI (SNB-75 CNS): > 100 µM
TGI (UO-31 renal): 42.5 µM

C=C(C)C12CC3CC/C(=N/O)C(C1)C3(N1CCOCC1)C/C2=N/O (stereo not drawn)
TGI (CCRF-CEM leukemia): > 100 µM
TGI (HCT-116 colon): > 100 µM
TGI (HCT-15 colon): > 100 µM
TGI (HS 578T breast): > 100 µM
TGI (LOX IMVI melanoma): > 100 µM
TGI (OVCAR-3 ovarian): > 100 µM
TGI (OVCAR-4 ovarian): > 100 µM
TGI (PC-3 prostate): > 100 µM
TGI (SF-295 CNS): > 100 µM
TGI (SK-MEL-2 melanoma): > 100 µM
TGI (SNB-19 CNS): > 100 µM
TGI (SNB-75 CNS): > 100 µM
TGI (UO-31 renal): > 100 µM

O=C(NNC(=O)c1ccccc1O)c1ccc(O)cc1
TGI (CCRF-CEM leukemia): > 100 µM
TGI (HCT-116 colon): > 100 µM
TGI (HCT-15 colon): > 100 µM
TGI (HS 578T breast): > 100 µM
TGI (LOX IMVI melanoma): > 100 µM
TGI (OVCAR-3 ovarian): > 100 µM
TGI (OVCAR-4 ovarian): > 100 µM
TGI (PC-3 prostate): > 100 µM
TGI (SF-295 CNS): > 100 µM
TGI (SK-MEL-2 melanoma): 94.7 µM
TGI (SNB-19 CNS): > 100 µM
TGI (SNB-75 CNS): > 100 µM
TGI (UO-31 renal): > 100 µM

CC(=O)c1cc(C)n2c1CS[C@@H]2c1ccccc1
TGI (CCRF-CEM leukemia): 60.9 µM
TGI (HCT-116 colon): > 100 µM
TGI (HCT-15 colon): > 100 µM
TGI (HS 578T breast): > 100 µM
TGI (LOX IMVI melanoma): > 100 µM
TGI (OVCAR-3 ovarian): > 100 µM
TGI (OVCAR-4 ovarian): > 100 µM
TGI (PC-3 prostate): > 100 µM
TGI (SF-295 CNS): > 100 µM
TGI (SK-MEL-2 melanoma): > 100 µM
TGI (SNB-19 CNS): > 100 µM
TGI (SNB-75 CNS): > 100 µM
TGI (UO-31 renal): > 100 µM

O=C1c2ccccc2-c2c1c(-c1cccc(Br)c1)nc1ccc3ccccc3c21
TGI (CCRF-CEM leukemia): > 100 µM
TGI (HCT-116 colon): > 100 µM
TGI (HCT-15 colon): > 100 µM
TGI (HS 578T breast): > 100 µM
TGI (LOX IMVI melanoma): > 100 µM
TGI (OVCAR-3 ovarian): > 100 µM
TGI (OVCAR-4 ovarian): > 100 µM
TGI (PC-3 prostate): > 100 µM
TGI (SF-295 CNS): > 100 µM
TGI (SK-MEL-2 melanoma): > 100 µM
TGI (SNB-19 CNS): > 100 µM
TGI (SNB-75 CNS): > 100 µM
TGI (UO-31 renal): > 100 µM

Cc1cc(-c2nc3cccc(F)c3s2)ccc1N
TGI (CCRF-CEM leukemia): 80.5 µM
TGI (HCT-116 colon): > 100 µM
TGI (HCT-15 colon): > 100 µM
TGI (HS 578T breast): > 90.8 µM
TGI (LOX IMVI melanoma): > 100 µM
TGI (OVCAR-3 ovarian): > 100 µM
TGI (OVCAR-4 ovarian): > 100 µM
TGI (PC-3 prostate): > 100 µM
TGI (SF-295 CNS): > 100 µM
TGI (SK-MEL-2 melanoma): > 100 µM
TGI (SNB-19 CNS): > 100 µM
TGI (SNB-75 CNS): 99.4 µM
TGI (UO-31 renal): > 100 µM

CC#CC(O)(C(=O)OC1CC2CCC(C1)N2C)C1CCCC1 (stereo not drawn)
TGI (CCRF-CEM leukemia): > 100 µM
TGI (HCT-116 colon): > 100 µM
TGI (HCT-15 colon): > 100 µM
TGI (HS 578T breast): > 100 µM
TGI (LOX IMVI melanoma): > 100 µM
TGI (OVCAR-3 ovarian): > 100 µM
TGI (OVCAR-4 ovarian): > 100 µM
TGI (PC-3 prostate): > 100 µM
TGI (SF-295 CNS): > 100 µM
TGI (SK-MEL-2 melanoma): > 100 µM
TGI (SNB-19 CNS): > 100 µM
TGI (SNB-75 CNS): > 100 µM
TGI (UO-31 renal): > 100 µM
